Our source for the IC50 values is US9533952B2, “N-prop-2-ynyl carboxamide derivatives and their use as TRPA1 antagonists” (Orion Corporation, priority 2012, dated 2017).

The structures appear in SMILES notation.

Chain of TRPA1 (O75762 whole entry): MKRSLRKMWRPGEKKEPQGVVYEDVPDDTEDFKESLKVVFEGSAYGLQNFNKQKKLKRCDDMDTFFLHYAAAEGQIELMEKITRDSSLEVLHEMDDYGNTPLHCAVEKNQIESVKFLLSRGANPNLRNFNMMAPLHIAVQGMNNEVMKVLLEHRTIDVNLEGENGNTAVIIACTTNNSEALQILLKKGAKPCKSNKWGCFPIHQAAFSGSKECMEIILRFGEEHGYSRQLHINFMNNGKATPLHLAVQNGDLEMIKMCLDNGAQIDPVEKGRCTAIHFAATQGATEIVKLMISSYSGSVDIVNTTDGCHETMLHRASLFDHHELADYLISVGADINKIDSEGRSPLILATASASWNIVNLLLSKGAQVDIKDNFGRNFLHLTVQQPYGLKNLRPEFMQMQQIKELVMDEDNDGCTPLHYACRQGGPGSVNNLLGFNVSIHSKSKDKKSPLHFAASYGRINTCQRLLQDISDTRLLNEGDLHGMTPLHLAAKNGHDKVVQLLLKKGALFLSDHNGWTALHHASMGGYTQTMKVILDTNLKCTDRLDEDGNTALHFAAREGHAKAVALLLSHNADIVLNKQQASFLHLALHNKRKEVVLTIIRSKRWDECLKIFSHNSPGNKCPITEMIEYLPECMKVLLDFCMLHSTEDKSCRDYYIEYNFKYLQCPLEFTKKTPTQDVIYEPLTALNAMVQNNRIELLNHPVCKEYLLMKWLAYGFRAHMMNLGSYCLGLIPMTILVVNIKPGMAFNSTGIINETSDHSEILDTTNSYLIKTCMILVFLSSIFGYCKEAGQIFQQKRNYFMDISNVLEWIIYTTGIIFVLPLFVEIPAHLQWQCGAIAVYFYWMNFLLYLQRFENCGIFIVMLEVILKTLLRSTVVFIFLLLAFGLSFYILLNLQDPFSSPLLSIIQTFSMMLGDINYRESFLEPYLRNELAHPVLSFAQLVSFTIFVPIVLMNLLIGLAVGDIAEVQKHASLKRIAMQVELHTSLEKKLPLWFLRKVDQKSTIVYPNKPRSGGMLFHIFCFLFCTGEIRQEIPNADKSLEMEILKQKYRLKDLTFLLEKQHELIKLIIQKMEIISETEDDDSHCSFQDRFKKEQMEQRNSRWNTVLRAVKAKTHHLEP

This assay has as its target TRPA1 (Homo sapiens, UniProt O75762). As to the kind of experiment: Determination of TRPA1 activity in vitro (TRPA1 antagonism in vitro). The assay is classed as cell-based. To be noted: procedure of Wei et al., Anesthesiology 111 (2009) 147-154.
For `C#CC(CC)(CC)NC(=O)c1cc(F)c(F)cc1NCCOC` [Example 45, N-(3-Ethylpent-1-yn-3-yl)-4,5-difluoro-2-(2-methoxyethylamino)-benzamide], the IC50 stood at 2000 nM.
The result for `C#CC(CC)(CC)NC(=O)c1cc(C(F)(F)F)ccc1NCCOC` [Example 46, N-(3-Ethylpent-1-yn-3-yl)-2-(2-methoxyethylamino)-5-(trifluoro-methyl)benzamide] reads 500 nM; that for `C#CC(CC)(CC)NC(=O)c1cc(I)ccc1NCCOC` [Example 47, N-(3-Ethylpent-1-yn-3-yl)-5-iodo-2-(2-methoxyethylamino)benzamide], 500 nM.
The result for `C#CC(C)(C)NC(=O)c1cc(C(F)(F)F)ccc1NCCOC` [Example 48, 2-(2-Methoxyethylamino)-N-(2-methylbut-3-yn-2-yl)-5-(trifluoromethyl)benzamide] reads 5700 nM.
For `C#CC(C)(C)NC(=O)c1cc(F)ccc1NCCCC` [Example 49, 2-(Butylamino)-5-fluoro-N-(2-methylbut-3-yn-2-yl)benzamide], half-maximal inhibition (IC50) was put at 1100 nM.
The compound `C#CC(C)(C)NC(=O)c1cc(I)ccc1NCCOC` [Example 50, 5-Iodo-2-(2-methoxyethylamino)-N-(2-methylbut-3-yn-2-yl)benzamide] came in with an IC50 of 5800 nM.
The result for `C#CC(C)(C)NC(=O)c1cc(F)cnc1NCC(C)C` [Example 51, 5-Fluoro-2-(isobutylamino)-N-(2-methylbut-3-yn-2-yl)nicotinamide] reads 2200 nM.
The result for `C#CC(C)(C)NC(=O)c1cc(F)cnc1NCCC(C)C` [Example 52, 5-Fluoro-2-(isopentylamino)-N-(2-methylbut-3-yn-2-yl)nicotinamide] reads 1200 nM; that for `C#CC(C)(C)NC(=O)c1cc(F)ccc1NCCOC(F)(F)F` [Example 53, 5-Fluoro-N-(2-methylbut-3-yn-2-yl)-2-(2-(trifluoromethoxy)-ethylamino)benzamide], 1900 nM; that for `C#CC(C)(C)NC(=O)c1cc(F)ccc1NCCCC(F)(F)F` [Example 54, 5-Fluoro-N-(2-methylbut-3-yn-2-yl)-2-(4,4,4-trifluorobutylamino)-benzamide], 1200 nM.
The result for `C#CC(C)(C)NC(=O)c1cc(F)cc(F)c1NCCC(F)(F)F` [Example 55, 3,5-Difluoro-N-(2-methylbut-3-yn-2-yl)-2-(3,3,3-trifluoropropylamino)-benzamide] reads 1700 nM; that for `C#CC(C)(C)NC(=O)c1cc(C(F)(F)F)cnc1NCC(F)F` [Example 56, 2-(2,2-Difluoroethylamino)-N-(2-methylbut-3-yn-2-yl)-5-(trifluoromethyl)nicotinamide], 1600 nM; that for `C#CC(C)(C)NC(=O)c1cc(F)cnc1NCC(C)(F)F` [Example 57, 2-(2,2-Difluoropropylamino)-5-fluoro-N-(2-methylbut-3-yn-2-yl)nicotinamide], 4700 nM.
With `C#CC(C)(C)NC(=O)c1cc(C(F)(F)F)cnc1NCCC(F)F` [Example 58, 2-(3,3-Difluoropropylamino)-N-(2-methylbut-3-yn-2-yl)-5-(trifluoromethyl)nicotinamide], the IC50 was determined as 1100 nM.
The result for `C#CC(C)(C)NC(=O)c1cc(Cl)cnc1NCC(C)(F)F` [Example 59, 5-Chloro-2-(2,2-difluoropropylamino)-N-(2-methylbut-3-yn-2-yl)nicotinamide] reads 2300 nM; that for `C#CC(C)(C)NC(=O)c1cc(Cl)cnc1NCCC(F)F` [Example 60, 5-Chloro-2-(3,3-difluoropropylamino)-N-(2-methylbut-3-yn-2-yl)nicotinamide], 1800 nM.
The result for `C#CC(C)(C)NC(=O)c1cc(F)c(F)cc1NCC(C)(C)C` [Example 61, 4,5-Difluoro-N-(2-methylbut-3-yn-2-yl)-2-(neopentylamino) benzamide] reads 800 nM; that for `C#CC(C)(C)NC(=O)c1cc(F)c(F)cc1NCC(C)C` [Example 62, 4,5-Difluoro-2-(isobutylamino)-N-(2-methylbut-3-yn-2-yl)benzamide], 400 nM.
